pIC50: −log10 of the molar value. Values belong to the compound of their own block, whether it stands above or below them. Calls of active or inactive are those of the source. No cut-off for these calls is given here.
What was measured:
PC-12 [1] = assay: Neuroprotective activity in rat PC-12 cells assessed as fold increase in upregulation of HO-1 expression measured at 30 uM for 6 hrs by immunoblotting analysis; assay type: functional
[2] = target: T1, Nuclear factor erythroid 2-related factor 2 (Rattus norvegicus) (UniProt O54968); assay: Induction of Nrf2 nuclear translocation in rat PC12 cells assessed as increase in phosphorylation of AKT at 10 uM for 2 to 3 hrs by Western blotting analysis; assay type: cell-based; details: PC-12, filed as activator, time 2-3 hrs
T1 sequence (whole entry): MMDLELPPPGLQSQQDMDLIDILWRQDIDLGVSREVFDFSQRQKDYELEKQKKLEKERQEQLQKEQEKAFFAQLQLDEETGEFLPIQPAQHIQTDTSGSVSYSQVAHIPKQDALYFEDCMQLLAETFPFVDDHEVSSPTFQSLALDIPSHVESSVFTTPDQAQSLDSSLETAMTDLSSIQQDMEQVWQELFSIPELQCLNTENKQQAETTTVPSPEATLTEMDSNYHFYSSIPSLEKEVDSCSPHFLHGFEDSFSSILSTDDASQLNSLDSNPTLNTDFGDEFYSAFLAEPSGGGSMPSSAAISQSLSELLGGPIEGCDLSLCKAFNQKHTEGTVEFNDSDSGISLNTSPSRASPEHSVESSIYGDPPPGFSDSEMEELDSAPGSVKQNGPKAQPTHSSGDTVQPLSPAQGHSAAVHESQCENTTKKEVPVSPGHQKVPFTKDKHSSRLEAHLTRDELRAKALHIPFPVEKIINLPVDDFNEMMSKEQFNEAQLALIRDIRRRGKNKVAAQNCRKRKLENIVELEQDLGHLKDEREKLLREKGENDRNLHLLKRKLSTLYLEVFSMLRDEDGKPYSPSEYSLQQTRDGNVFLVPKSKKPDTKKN

PC-12 [3] = assay: Neuroprotective activity against 6-OHDA-induced cytotoxicity in rat PC-12 cells for 4 hrs followed by exposure to 6-OHDA measured after 24 hrs by MTT assay; assay type: functional, cell-based; details: dose 0.1-30 µM, time 28.0 hrs
PC-12 [4] = assay: Upregulation of HO-1 expression in si-RNA mediated Nrf2 knock down rat PC-12 cells measured by immunoblotting analysis; assay type: functional, cell-based
[5] = Neurotoxicity in rotenone induced at rat PC-12 cells assessed as cell viability at 30 uM pretreated for 4 hrs followed by rotenone addition measured after 24 hrs by MTT assay (reference value: 53.4 +/- 2.6%); assay type: toxicity, cell-based; details: time 28 hrs, read-out: Activity
PC-12 [6] = assay: Reversal of upregulation of HO-1 in rat PC-12 cells pretreated with U0126 for 2 hrs followed by compound addition at 10 uM for 2 to 3 hrs by Western blotting analysis; assay type: functional, cell-based; details: time 2-3 hrs
[7] = Neurotoxicity in rotenone induced at rat PC-12 cells assessed as cell viability pretreated with compound for 4 hrs followed by rotenone addition measured after 24 hrs by MTT assay; assay type: toxicity, cell-based
[8] = target: T1, Nuclear factor erythroid 2-related factor 2 (Rattus norvegicus); assay: Induction of Nrf2 nuclear translocation in rat PC12 cells assessed as increase in phosphorylation of Akt pretreated with LY294002 for 2 hrs followed by compound addition at 10 uM for 2 to 3 hrs by Western blotting analysis; assay type: cell-based; details: PC-12, time 2-3 hrs
[9] = target: T1, Nuclear factor erythroid 2-related factor 2 (Rattus norvegicus); assay: Induction of Nrf2 nuclear translocation in rat PC12 cells assessed as increase in phosphorylation of ERK2 pretreated with U0126 for 2 hrs followed by compound addition at 10 uM for 2 to 3 hrs by Western blotting analysis; assay type: cell-based; details: PC-12, time 2-3 hrs
PC-12 [10] = assay: Antiinflammatory activity in rotenone induced cytotoxicity in rat PC-12 cells assessed as reduction of fluorescence signal pretreated at 10 to 30 uM for 4 hrs followed by rotenone addition treated for 6 hrs measured after 1 hr of H2-DCFDA addition by spectrophotometric analysis; assay type: functional, cell-based; details: dose 10-30 µM, time 11.0 hrs
PC-12 [11] = assay: Antiinflammatory activity in 6-OHDA-induced cytotoxicity in rat PC-12 cells assessed as reduction of ROS production pretreated at 10 to 30 uM for 4 hrs followed by 6-OHDA addition treated for 6 hrs measured after 1 hr of H2-DCFDA addition by measuring fluorescence; assay type: functional, cell-based; details: dose 10-30 µM, time 11.0 hrs
PC-12 [12] = assay: Antiinflammatory activity in 6-OHDA-induced cytotoxicity in rat PC-12 cells assessed as reduction of fluorescence signal pretreated at 10 to 30 uM for 4 hrs followed by 6-OHDA addition treated for 6 hrs measured after 1 hr of H2-DCFDA addition by spectrophotometric analysis; assay type: functional, cell-based; details: dose 10-30 µM, time 11.0 hrs
[13] = target: T1, Nuclear factor erythroid 2-related factor 2 (Rattus norvegicus); assay: Induction of Nrf2 nuclear translocation in rat PC12 cells assessed as increase in phosphorylation of ERK1 pretreated with U0126 for 2 hrs followed by compound addition at 10 uM for 2 to 3 hrs by Western blotting analysis; assay type: cell-based; details: PC-12, time 2-3 hrs
[14] = target: T1, Nuclear factor erythroid 2-related factor 2 (Rattus norvegicus); assay: Induction of Nrf2 nuclear translocation in rat PC12 cells assessed as increase in phosphorylation of JNK at 10 uM for 2 to 3 hrs by Western blotting analysis; assay type: cell-based; details: PC-12, filed as activator, time 2-3 hrs
[15] = target: T1, Nuclear factor erythroid 2-related factor 2 (Rattus norvegicus); assay: Induction of Nrf2 nuclear translocation in rat PC12 cells assessed as increase in phosphorylation of ERK2 at 10 uM for 2 to 3 hrs by Western blotting analysis; assay type: cell-based; details: PC-12, filed as activator, time 2-3 hrs
[16] = target: T1, Nuclear factor erythroid 2-related factor 2 (Rattus norvegicus); assay: Inhibition of Nrf2 nuclear translocation in rat PC12 cells assessed as increase in phosphorylation of p38 MAPK pretreated with SB203580 for 2 hrs followed by compound addition at 10 uM for 2 to 3 hrs by Western blotting analysis; assay type: cell-based; details: PC-12, time 2-3 hrs
PC-12 [17] = assay: Neuroprotective activity in rat PC-12 cells assessed as upregulation of HO-1 expression measured at 10 uM after 3 to 6 hrs by immunoblotting analysis; assay type: functional, cell-based; details: time 3-6 hrs
[18] = target: T1, Nuclear factor erythroid 2-related factor 2 (Rattus norvegicus); assay: Induction of Nrf2 nuclear translocation in rat PC12 cells assessed as increase in phosphorylation of ERK1 at 10 uM for 2 to 3 hrs by Western blotting analysis; assay type: cell-based; details: PC-12, filed as activator, time 2-3 hrs
[19] = target: T1, Nuclear factor erythroid 2-related factor 2 (Rattus norvegicus); assay: Induction of Nrf2 nuclear translocation in rat PC12 cells assessed as change in phosphorylation of p38 MAPK level at 10 uM for 2 to 3 hrs by Western blotting analysis; assay type: cell-based; details: PC-12, time 2-3 hrs
PC-12 [20] = assay: Cytotoxicity in 6-OHDA induced rat PC-12 cells assessed as cell viability pretreated with ZnPP for 30 mins followed by compound addition at 10 uM for 4 hrs and measured after 24 hrs of […] addition by MTT assay; assay type: functional, cell-based; details: time 28.0 hrs
[21] = target: KEAP1/NRF2 (Rattus norvegicus) (UniProt O54968+P57790); assay: Inhibition of Nrf2-Keap1 protein-protein interaction in rat PC-12 cells by Western blotting analysis; assay type: cell-based
PC-12 [22] = assay: Antiinflammatory activity in rotenone induced cytotoxicity in rat PC-12 cells assessed as reduction of ROS production pretreated at 10 to 30 uM for 4 hrs followed by rotenone addition treated for 6 hrs measured after 1 hr of H2-DCFDA addition by measuring fluorescence; assay type: functional, cell-based; details: dose 10-30 µM, time 11.0 hrs
PC-12 [23] = assay: Cytotoxicity in rat PC-12 cells assessed as cell viability incubated for 24 hrs by MTT assay; assay type: functional, cell-based; details: PC-12, 24 h
PC-12 [24] = assay: Neuroprotective activity in rat PC-12 cells assessed as upregulation of HO-1 expression measured for 6 hrs by immunoblotting analysis; assay type: functional, cell-based; details: dose 1-30 µM
[25] = target: T1, Nuclear factor erythroid 2-related factor 2 (Rattus norvegicus); assay: Induction of Nrf2 nuclear translocation in rat PC12 cells assessed as increase in phosphorylation of JNK pretreated with SP600125 for 2 hrs followed by compound addition at 10 uM for 2 to 3 hrs by Western blotting analysis; assay type: cell-based; details: PC-12, time 2-3 hrs
PC-12 [26] = assay: Reversal of upregulation of HO-1 in rat PC-12 cells pretreated with LY294002 for 2 hrs followed by compound addition at 10 uM for 2 to 3 hrs by Western blotting analysis; assay type: functional, cell-based; details: time 2-3 hrs
Brain = assay: Antioxidant activity in Fe2+/L-ascorbic acid induced Sprague-Dawley rat brain homogenate assessed as inhibition of lipid peroxide production measured at 100 uM after 60 mins by microplate reader method relative to control; assay type: functional, tissue-based
PC-12 [27] = assay: Cytotoxicity in rat PC-12 cells assessed as cell viability measured at 10 to 30 uM for 24 hrs by MTT assay; assay type: functional, cell-based; details: dose 10-30 µM
PC-12 [28] = assay: Neuroprotective activity against 6-OHDA-induced cytotoxicity in rat PC-12 cells at 10 to 30 uM for 4 hrs followed by exposure to 6-OHDA measured after 24 hrs by MTT assay; assay type: functional, cell-based; details: dose 10-30 µM, time 28.0 hrs
[29] = target: T1, Nuclear factor erythroid 2-related factor 2 (Rattus norvegicus); assay: Induction of Nrf2 nuclear translocation in rat PC12 cells at 10 uM for 3 hrs by Western blotting analysis; assay type: cell-based; details: PC-12, filed as activator
PC-12 [30] = assay: Reversal of upregulation of HO-1 in rat PC-12 cells pretreated with SP600125 for 2 hrs followed by compound addition at 10 uM for 2 to 3 hrs by Western blotting analysis; assay type: functional, cell-based; details: time 2-3 hrs
PC-12 [31] = assay: Neuroprotective activity against 6-OHDA-induced cytotoxicity in rat PC-12 cells at 30 uM for 4 hrs followed by exposure to 6-OHDA measured after 24 hrs by MTT assay; assay type: functional, cell-based; details: time 28.0 hrs
PC-12 [32] = assay: Neuroprotective activity against 6-OHDA-induced cytotoxicity in rat PC-12 cells at 10 uM for 4 hrs followed by exposure to 6-OHDA measured after 24 hrs by MTT assay; assay type: functional, cell-based; details: time 28.0 hrs
PC-12 [33] = assay: Cytotoxicity in rat PC-12 cells assessed as cell viability measured at 10 uM for 24 hrs by MTT assay; assay type: functional, cell-based

Activity [2]: Active
Activity [8]: inactive
Activity [9]: inactive
Activity [13]: inactive
Activity [14]: Active
Activity [15]: Active
inhibition [16]: Active
Activity [18]: Active
Activity [19]: inactive
inhibition [21]: Active
Activity [25]: inactive
Activity [29]: Active
SMILES: CC1(C)Oc2c(c(O)cc3occ(-c4ccc(F)cc4F)c(=O)c23)CC1O (centres undefined)
fold change (FC) (PC-12 [1]): 1.5
Activity (PC-12 [3]): Dose-Dependent Effect
Activity (PC-12 [4]): inactive
viability at 30 µM [5]: ≤ 79.9%
Activity (PC-12 [6]): Active
pIC50 [7]: 5.33
Activity (PC-12 [10]): Active
Activity (PC-12 [11]): Active
Activity (PC-12 [12]): Active
Activity (PC-12 [17]): Active
Activity (PC-12 [20]): Active
Activity (PC-12 [22]): Active
pIC50 (PC-12 [23]): 5.38
Activity (PC-12 [24]): Dose-Dependent Effect
Activity (PC-12 [26]): Active
inhibition (Brain): 50.5%
Activity (PC-12 [27]): Active
Activity (PC-12 [28]): Active
Activity (PC-12 [30]): Active

SMILES: CC1(C)Oc2c(c(O)cc3occ(-c4ccco4)c(=O)c23)CC1O (centres undefined)
Activity (PC-12 [31]): inactive
Activity (PC-12 [32]): Active
Activity (PC-12 [33]): Active

— ChEMBL document CHEMBL5352401, “Novel cudraisoflavone J derivatives as potent neuroprotective agents for the treatment of Parkinson's disease via the activation of Nrf2/HO-1 signaling” (Eur J Med Chem, 2022)
